Type in all cases: functional, cell-based
One assay relates to Vero. Description: Cytotoxicity against Chlorocebus aethiops (African green monkey) Vero cells by MTT assay. The settings on record: Chlorocebus sabaeus. On the technique in general: Tetrazolium assays rely on reduction of a dye to a coloured formazan, in cell work by metabolically active cells.
The test system of a further assay is HeLa. Description: Cytotoxicity against Homo sapiens (human) HeLa cells by MTT assay.
The subject of a further assay is Erythrocyte. Kind of assay: Hemolytic activity in Homo sapiens (human) Erythrocyte after 30 min. The settings on record: 0.5 h.

Values after ≈ are worked out from the molar mass of the structure shown.

One may read the IC50 as the midpoint of a concentration-inhibition curve. Read a high IC50 as weaker potency in that assay. As usually defined, the EC50 is the concentration needed to bring the measured effect to its halfway point.

`Cc1ccc2[nH]c3c(c2c1)CCc1c-3nc2ccc(Cl)cc2c1-c1ccccc1`: the IC50 in the assay with Vero and in the assay with HeLa was > 100 µg/mL throughout. Also, the EC50 in the assay on Erythrocyte came out at 212 µg/mL (≈ 537 µM).

Turning to `Cc1cccc2c3c([nH]c12)-c1nc2ccc(Cl)cc2c(-c2ccccc2)c1CC3`, the IC50 in the assay on Vero and in the assay with HeLa was > 100 µg/mL each time. In addition, in the assay with Erythrocyte, the concentration giving a half-maximal response (EC50) amounted to 458 µg/mL (≈ 1160 µM).

Regarding `Cc1ccc2c3c([nH]c2c1)-c1nc2ccc(Cl)cc2c(-c2ccccc2)c1CC3`, the IC50 in the assay with Vero and in the assay on HeLa was > 100 µg/mL throughout. This compound came in with an EC50 in the assay on Erythrocyte of 409 µg/mL (≈ 1030 µM).

Take `CC[C@@]1(O)C(=O)OCc2c1cc1n(c2=O)Cc2cc3ccccc3nc2-1` [CAMPTOTHECIN]: the results for the IC50 in the assay with Vero and in the assay with HeLa were 58 µg/mL (≈ 166 µM) and 0.28 µg/mL (≈ 0.804 µM), respectively. This compound also came in with an EC50 in the assay with Erythrocyte of 430 µg/mL (≈ 1230 µM).

The record behind these values is ChEMBL document CHEMBL3046074, “SnO2 nanoparticles mediated nontraditional synthesis of biologically active 9-chloro-6,13-dihydro-7-phenyl-5H-indolo [3,2-c]-acridine derivatives” (Med Chem Res, 2011).
